According to patent publication US9689042B2, “Use of glycolytic pathways for inhibiting or measuring oncogenic signaling” (The Regents of the University of California, priority 2012, dated 2017):
Entries after “also recorded” stand apart in the source; their conditions may differ. d = 2'-deoxy (DNA); r = 2'-OH (RNA)

Key:
[1] = test system: T4-2 cells; assay: siRNA knockdown in T4-2 cells cultured in 3D-on top (3D-OT) lrECM; assay type: cell-based, human; conditions: 3 days
Protocol: For experiments that need to be done in shorter-term (e.g. cultures of siRNA-transfected cells or for live imaging), cells were seeded at 60,000 cells per cm2 on top (3D-OT) of lrECM gels overlaid with H14 medium containing 5% (v/v) lrECM. Cells were harvested after 3 days.
Predesigned siRNA duplexes targeting GLUT3, GFPT1, GFPT2 and OGT, as well as control siRNA were obtained from Ambion. The other siRNA duplexes were chemically synthesized and purchased from Hokkaido System Science. The sequences are as follows:
For transfection of each siRNA into T4-2 cells, Lipofectamine RNAi MAX (Invitrogen) was used, according to the manufacturer's instruction. Cells were trypsinized 36 hrs after transfection and cultured in 3D-OT lrECM for 3 days before harvest.

[2] = test system: T4-2 cells; conditions: for phenotypic reversion of the malignant phenotype / rescue of the malignant (disorganized) phenotype by supplementation / basal polarity / organized acinar structures / growth / proliferation (cell numbers at the colony mid-section, EdU incorporation): 3D lrECM; for phenotypic reversion of the malignant phenotype: 2DG 4 mM, IA 20 μM, OX 50 mM, Azs 20 μM, DON 20 μM, BADGP 5 mM, TM 10 ng/ml, OGM 4 ng/ml, Rapa 0.01-1.0 μM; for rescue of the malignant (disorganized) phenotype by supplementation: T4-2 cells reverted by IA 20 μM or 1.75 mM glucose, PEP 0.5 mM, pyruvate; for basal polarity / organized acinar structures / growth / proliferation (cell numbers at the colony mid-section, EdU incorporation): same inhibitor concentrations as E1
Protocol: (§1) HMT-3522 cells were cultured on tissue culture plastic (2D) and in 3D lrECM gels with H14 medium, a 1:1 mix of DMEM/F12 (UCSF Cell Culture Facility) supplemented with 250 ng/ml insulin, 10 μg/ml transferrin, 2.6 ng/ml sodium selenite, 0.1 nM β-estradiol, 1.4 μM hydrocortisone and 5 μg/ml prolactin but no serum. S1 cells were additionally supplemented with 10 ng/ml EGF. MDA-MB-231 and HCC70 cells were cultured in DMEM and RPMI1640, respectively, and were supplemented with 10% fetal bovine serum (FBS).
(§2) For 3D lrECM cultures, S1 and T4-2 cells were seeded at 840,000 and 600,000 cells per cm3 respectively in lrECM gel (Cultrex), overlaid with H14 medium. MDA-MB-231 and HCC70 cells were seeded at 625,000 cell per cm3 and overlaid with H14 medium supplemented with 1% FBS. Cells were used for each assay after 10 days, unless otherwise indicated.
Pieces of lrECM gel containing cell colonies were suspended in approximately the same volume of phosphate buffered saline (PBS) and directly spread on glass slides. After brief air-drying, colonies were fixed with 3.7% paraformaldehyde (PFA) in PBS at room temperature (RT) for 10 min, washed with PBS containing 0.1 mM glycine, and permeabilized with 1:1 methanol/acetone at −20° C. for 10 min. After blocking with IF buffer (0.2% Triton X-100, 0.1% BSA [radioimmunoassay grade], 0.05% Tween 20, 7.7 mM NaN3 in PBS) containing 10% goat serum and 1% goat F(ab′)2 anti-mouse immunoglobulin G (IgG; Caltag) at RT for 30 min, colonies were stained with anti-α6 integrin antibody (Chemicon International) at 4° C. overnight. Colonies were washed extensively with IF buffer, and stained with Alexa 568-labeled anti-rat IgG antibody at RT for 2 hr. Colonies were washed with IF buffer again, and nuclei were stained with DAPI at RT for 10 min. Slides were briefly washed with PBS and mounted with 50% glycerol in PBS.
To test whether increased glucose metabolism itself is required for oncogenic signaling events, we utilized 3D lrECM cultures of HMT-3522, a breast cancer progression series which includes non-malignant (S1) and malignant (T4-2) human breast epithelial cells from the same individual (Briand et al., 1987; Petersen et al., 1992; Rizki et al., 2008). Using these cells, we have described the involvement and reciprocity of multiple signaling pathways including EGFR, β1 integrin, PI3K-Akt and MEK-ERK in oncogenic events (Beliveau et al., 2010; Bissell et al., 2005). […] We thus used this “phenotypic reversion” of the cancer cells as an assay to examine how the signaling integration plan of the breast acini could involve glucose metabolism.

[3] = test system: EGFR, β1 integrin, Akt, MEK, GLUT3, glycolytic enzymes in T4-2 cells; assay: Western blots of signaling intermediates, GLUT3 and metabolic enzymes in 3D lrECM cultures of T4-2 cells; assay type: cell-based, human; conditions: 3D lrECM; for recovery of β1 integrin expression and Akt activity by supplementation: T4-2 cells reverted by IA 20 μM or 1.75 mM glucose, PEP 0.5 mM, ESCA 20 μM
Protocol: Cell colonies were separated from lrECM gels by shaking in PBS containing 5 mM EDTA and the proteinase inhibitor cocktail set I (Calbiochem) on ice for 30 min. Cells were lysed in lysis buffer (1% NP-40, 1% deoxycholate, 2% SDS, 150 mM NaCl, 20 mM Tris-HCl [pH 7.4] plus 5 mM EDTA and protease inhibitor cocktail set I and phosphatase inhibitor cocktail set I [Calbiochem]) and sonicated three times for 30 sec each. Proteins were separated by SDS-PAGE, transferred to nitrocellulose membranes, and probed with antibodies against the following proteins: phosphorylated MEK, MEK, phosphorylated Akt, Akt, phosphorylated AMPK, AMPK, p70S6K, phosphorylated p70S6K, CHOP, EPAC1 (Cell Signaling), β1 integrin, EGFR, activated EGFR, HIF-1α, (Chemicon International), PFKP (Abgent), GAPDH, GLUT3 (GeneTex), LDHA, PDHE1α, DLAT, DLD, HIF-3α, Rap1, sAC, EPAC2, OGT, Lamin A/C (Santa Cruz Biotechnology), Aldolase (Polysciences), GFPT (ProteinTech Group), HIF-2α (Abcam), and HA-tag (Covance). After probing with HRP-conjugated secondary antibodies, blots were developed using SuperSignal West Femto chemiluminescence reagent (Pierce Biotechnology). Images were captured using Fluor Chem 8900 imager (Alpha Innotech).

[4] = test system: Rap1; assay: Measurement of Rap1 activity (GST-RalGDS-RBD pull-down) in T4-2 cells; assay type: cell-based, human; conditions: T4-2 cells treated with IA 20 μM or 1.75 mM glucose; PEP 0.5 mM, ESCA 20 μM
Protocol: Rap1 activity was measured as described previously (Itoh et al., 2007). Briefly, cell colonies were extracted from lrECM as described above, and lysed in lysis buffer (50 mM Tris-HCl [pH 7.4], 500 mM NaCl, 1% NP40, 2.5 mM MgCl2, 10% glycerol, 10 μg/ml aprotinin and 10 μg/ml leupeptin) at 4° C. for 30 min. Lysates were cleared by centrifugation at 15,000×g at 4° C. for 15 min. Supernatants (containing 300 μg protein in 300 μl) were incubated with 15 μg of GST-tagged RalGDS-RBD fusion protein immobilized on Glutathione Sepharose 4B beads (GE Healthcare), at 4° C. for 1 hr. Beads were washed trice in lysis buffer and resuspended in Laemmli buffer. Samples were separated by SDS-PAGE, followed by transfer to polyvinylidene fluoride membranes (0.2 μm pore) and immunoblotting using anti-Rap1 antibody.

[5] = test system: T4-2 cells; assay: Glucose uptake assay (IRDye800CW-2DG) in 3D lrECM; assay type: cell-based, human
Protocol: (§3) Cells suspended in 200 μl lrECM were seeded in 12 well glass-bottom plates (14 mm diameter; MatTek Corporation). Gels were overlaid with 500 μl H14 media and cultured for 10 days before each assay unless otherwise described.
For glucose uptake assay, cells were incubated with 1 μM of IRDye800CW-2DG (LI-COR Biosciences) for 1 hour, fixed within gels with 4% paraformaldehyde (PFA) in PBS for 30 min. and stained with DRAQ5 (1:10000 dilution), an infrared dye that binds stoichiometrically to DNA, for 30 min. Cells were extensively washed with PBS, then IRDye800-2DG uptake together with DRAQ5 staining were measured by using Odyssey Infrared Imaging System (LI-COR Biosciences).
(§4) In each assay, one well, containing only lrECM, was made for background measurements. Glucose uptake measured by 2DG uptake, lactate production and MitoTracker staining were normalized using total DNA levels, and presented relative to that of control (either S1 or non-treated T4-2 cells).

[6] = test system: T4-2 cells; assay: Mitochondrial activity (MitoTracker oxidation) assay in 3D lrECM; assay type: cell-based, human
Protocol: as §3
For mitochondrial activity, we slightly modified the method described previously (Morici et al., 2007). Briefly, cells were incubated with 2 μM MitoTracker® Orange CM-H2 TMRos (Invitrogen) for 1 hour and fixed with PFA as above. Cells were counterstained with Hoechst 33342 (Invitrogen), which is known also to bind to DNA stoichiometrically, then MitoTracker and Hoechst staining were measured by taking z-section images from top to bottom of the gels using confocal microscopy.
as §4

[7] = test system: T4-2 cells; assay: Lactate production assay in 3D lrECM; assay type: cell-based, human
Protocol: as §3
For lactate production, on day 9, conditioned-media were harvested to measure lactate remaining in the 200 μl of the gel (assuming equilibrium between medium and gel, C0 nmol/μl). […] After 24 hours, total culture medium was harvested for measurement of final lactate concentrations (C nmol/μl) and total volumes (V μl) of the conditioned-media, and the cells in gel were fixed with PFA as above. Concentration of lactate in each sample was measured using a lactate assay kit (BioVision). Net lactate production within 24 hours (N) was calculated as follows: N=C×(V+200)−C0×200. Fixed cells were stained with DRAQ5, to measure total level of DNA as a surrogate for number of cells, and the staining was measured as above.
as §4

[8] = test system: S1 cells; assay: 3D lrECM culture of non-malignant S1 cells: acinar morphology and growth; assay type: cell-based, human; conditions: 2DG 4 mM, OGM 4 ng/ml
Protocol: as §1, §2
Pieces of lrECM gel containing cell colonies were suspended in approximately the same volume of phosphate buffered saline (PBS) and directly spread on glass slides. After brief air-drying, colonies were fixed with 3.7% paraformaldehyde (PFA) in PBS at room temperature (RT) for 10 min, washed with PBS containing 0.1 mM glycine, and permeabilized with 1:1 methanol/acetone at −20° C. for 10 min. […]

Compound: GAPDH siRNA: chemically synthesized siRNA duplex targeting GAPDH, SEQ ID NO: 1 and SEQ ID NO: 2 (chain 1 GAGCCACAUCGCUCAGACA; chain 2 UGUCUGAGCGAUGUGGCUC; listed as RNA, chemistry not fully specified)
- phenotype after siRNA knockdown (reversion) [1]: essentially reproduced the above results

Compound: sAC siRNA: chemically synthesized siRNA duplex targeting sAC, SEQ ID NO: 7 and SEQ ID NO: 8 (chain 1 AUGUAGCCUGGAGAUCCAUTT; chain 2 AUGGAUCUCCAGGCUACAUTT; sugars from the 5' end r19 d2, backbone not given here)
- phenotype after siRNA knockdown (reversion) [1]: induced phenotypic reversion

Compound: CC(Sc1nc2ccccc2[nH]1)C(=O)N/N=C/c1cc(Br)ccc1O (centres unmarked) [KH7]
- reactivation (disorganization, Rap1, β1 integrin and Akt) on raising glucose from 1.75 mM to 5.5 mM ([2]; T4-2 cells reverted in 1.75 mM glucose, then 5.5 mM glucose with KH7): almost completely abolished
- phenotypic reversion of the malignant phenotype ([2]; T4-2 cells): do induce phenotypic reversion

Compound: Tunicamycin [TM]
- phenotypic reversion of the malignant phenotype ([2]; T4-2 cells): do not induce phenotypic reversion; also recorded: did not lead to phenotypic reversion
- cell death ([2]; T4-2 cells, increasing amounts of tunicamycin (data not shown)): induced significant cell death

Compound: C=C(OP(=O)(O)O)C(=O)O [PEP, phosphoenolpyruvate]
- rescue of the malignant (disorganized) phenotype by supplementation ([2]; ESCA 20 μM): reproduced the disorganized structure
- recovery of β1 integrin expression and Akt activity by supplementation [3]: partially recovered
- Rap1 reactivation by supplementation [4]: Rap1 reactivation

Compound: CC(=O)N[C@H]1[C@@H](OCc2ccccc2)O[C@H](CO)[C@H](O)[C@@H]1O [BADGP, Benzyl-2-acetamido-2-deoxy-α-D-galactopyranoside]
- phenotypic reversion of the malignant phenotype ([2]; T4-2 cells): do induce phenotypic reversion; also recorded: induced phenotypic reversion

Compound: [N-]=[N+]=CC(=O)OC[C@H](N)C(=O)O [AZS, Azaserine]
- phenotypic reversion of the malignant phenotype ([2]; T4-2 cells): do induce phenotypic reversion; also recorded: induced the repertoire of the reversion phenotype
- basal polarity / organized acinar structures ([2]; T4-2 cells): re-establishment of tissue polarity
- growth / proliferation (cell numbers at the colony mid-section, EdU incorporation) ([2]; T4-2 cells): growth arrest
- glucose uptake [5]: significantly down-regulated
- levels and/or activities of EGFR, β1 integrin, Akt and MEK (oncogenic signaling) ([3]; T4-2 cells, Western blot): suppression of activation of oncogenic signaling
- EGFR expression and activity ([3]; T4-2 cells, Azs 20 μM, DON 20 μM): significantly down-regulated
- mitochondrial activity (oxidation) [6]: remained unaltered
- lactate production [7]: significantly down-regulated

Compound: CO[C@@H]1[C@@H]2OP(=O)(O)OC[C@H]2O[C@H]1n1c(Sc2ccc(Cl)cc2)nc2c(N)ncnc21 [ESCA, 8CPT-2′-OMe-cAMP]
- rescue of the malignant (disorganized) phenotype by supplementation ([2]; ESCA 20 μM): loss of tissue polarity
- restoration of proliferation by supplementation ([2]; T4-2 cells treated with IA 20 μM or 1.75 mM glucose, ESCA 20 μM): did not restore proliferation to the level of non-treated cultures
- recovery of β1 integrin expression and Akt activity by supplementation [3]: partially restored
- Rap1 reactivation by supplementation [4]: reactivated Rap1

Compound: CC[C@H]1/C=C/C=C/C[C@@H](C)[C@H](O)[C@@](C)(O)C(=O)[C@@H](C)[C@H](O)[C@@H](C)C(=O)[C@@H](C)[C@H](O)[C@@H](C)/C=C/C(=O)O[C@@H]2[C@H](C)[C@H](CC1)O[C@]1(CC[C@H](C)[C@H](C[C@@H](C)O)O1)[C@H]2C [OGM, Oligomycin]
- phenotypic reversion of the malignant phenotype ([2]; T4-2 cells): do not induce phenotypic reversion
- basal polarity / organized acinar structures ([2]; T4-2 cells): did not induce organized structures
- growth / proliferation (cell numbers at the colony mid-section, EdU incorporation) ([2]; T4-2 cells): suppressing proliferation significantly
- acinar morphology, basal polarity and growth rate of non-malignant cells [8]: lost basal tissue polarity
